Measurements: patent US20200368312A1 (priority 2017, published 2020)
Read-outs that look alike come from different tables or passages of the source.

Experiments:
Type in all cases: cell-based
Staphylococcus aureus = assay: microbe, parasite or virus in culture; settings: for MIC: Staphylococcus aureus
Enterococci = system: Enterococci
Streptococci = assay: Broth microdilution MIC, Streptococci (Example 11, Table 7)
Clostridium difficile = assay: Broth microdilution MIC, C. difficile, anaerobic, supplemented Brucella Broth (Example 11, Table 7)
S. epidermidis (CoNS) = assay: Broth microdilution MIC, S. epidermidis (CoNS) (Table 7)
S. lugdenensis (CoNS) = assay: Broth microdilution MIC, S. lugdenensis (CoNS) (Table 7); settings: S. lugdenensis (CoNS) MMX 8724
S. haemolyticus (CoNS) = assay: Broth microdilution MIC, S. haemolyticus (CoNS) (Table 7); settings: S. haemolyticus (CoNS) MMX 529 ATCC 29970
S. hominis (CoNS) = assay: Broth microdilution MIC, S. hominis (CoNS) (Table 7); settings: S. hominis (CoNS) MMX 667 ATCC 27844
C. perfringens = C. perfringens MMX 8351 ATCC 13124
P. micros = assay: Broth microdilution MIC, P. micros (Table 7); settings: P. micros MMX 3546
P. anaerobius = assay: Broth microdilution MIC, P. anaerobius (Table 7); settings: P. anaerobius MMX 1208 ATCC 27337
P. acnes = assay: Broth microdilution MIC, P. acnes (Table 7)
E. lenta = assay: Broth microdilution MIC, E. lenta (Table 7); settings: E. lenta MMX 1287 ATCC 43055

CN(C)c1cc(NC(=O)CNC(C)(C)C)c(O)c2c1C[C@H]1C[C@H]3[C@H](N(C)C)C(O)=C(C(N)=O)C(=O)[C@@]3(O)C(O)=C1C2=O [Tigecycline]
0.25 µg/mL: MIC (Staphylococcus aureus; ATCC 29213 / MSSA, S. aureus MMX 100 ATCC 29213, MSSA (quality control)) | MIC (Staphylococcus aureus; ATCC 33591 / MRSA, S. aureus MMX 5717 ATCC 33591, MRSA) | MIC (Staphylococcus aureus; S. aureus MMX 4665, hVISA) | MIC (E. lenta)
16 ×: RV40 activity as compared to Comparator (Staphylococcus aureus; MRSA strains (Table 5), […])
0.045 µg/mL: MIC (Staphylococcus aureus; VISA, S. aureus MMX 2124, VISA, DaptoNS)
0.06 µg/mL: MIC (Enterococci; E. faecalis MMX 101 ATCC 29212, VSE) | MIC (Enterococci; E. faecium MMX 173, VanB VRE) | MIC (Enterococci; E. faecium MMX 851, VanA VRE) | MIC (Enterococci; E. faecium MMX 4204) | MIC (Streptococci; S. dysgalactiae MMX 5121) | MIC (Streptococci; S. oralis (MGS) MMX 5821) | MIC (Streptococci; S. pneumoniae MMX 1195 ATCC 49619, PISP) | MIC (S. epidermidis (CoNS); S. epidermidis (CoNS) MMX 762, MRSE) | MIC (S. lugdenensis (CoNS)) | MIC (S. haemolyticus (CoNS))
0.75 µg/mL: MIC (Staphylococcus aureus; S. aureus MMX 5989, Mu3, hVISA)
0.09 µg/mL: MIC (Staphylococcus aureus; MRSA, S. aureus MMX 2010, MRSA) | MIC (Staphylococcus aureus; VISA, S. aureus MMX 4660, VISA)
0.12 µg/mL: MIC (Staphylococcus aureus; ATCC BAA-1556 / MRSA, S. aureus MMX 4675 ATCC BAA-1556, MRSA) | MIC (Staphylococcus aureus; ATCC BAA-1756 / MRSA, S. aureus MMX 2011 ATCC BAA-1756, MRSA) | MIC (Staphylococcus aureus; MRSA, S. aureus MMX 5999, MRSA) | MIC (Staphylococcus aureus; MRSA, S. aureus MMX 7899, MRSA) | MIC (Staphylococcus aureus; MRSA, S. aureus MMX 7901, MRSA) | MIC (Staphylococcus aureus; MRSA, S. aureus MMX 7902, MRSA) | MIC (Staphylococcus aureus; MRSA, S. aureus MMX 7903, MRSA) | MIC (Staphylococcus aureus; MSSA, S. aureus MMX 2490, MSSA) | MIC (Staphylococcus aureus; MSSA, S. aureus MMX 7907, MSSA) | MIC (Staphylococcus aureus; MSSA, S. aureus MMX 7908, MSSA) | MIC (Staphylococcus aureus; VISA, S. aureus MMX 4658, VISA) | MIC (Enterococci; E. faecalis MMX 1086, VanA VRE) | MIC (Enterococci; E. faecalis MMX 4176) | MIC (Streptococci; S. dysgalactiae MMX 5124) | MIC (S. epidermidis (CoNS); S. epidermidis (CoNS) MMX 5145, MRSE) | MIC (S. hominis (CoNS)) | MIC (C. perfringens)
0.008 µg/mL: MIC (Streptococci; S. anginosus (AGS) MMX 1201 ATCC 33397)
0.03 µg/mL: MIC (Streptococci; S. agalactiae MMX 4088) | MIC (Streptococci; S. agalactiae MMX 4115, erm^R) | MIC (Streptococci; S. constellatus (AGS) MMX 5677) | MIC (Streptococci; S. mitis (MGS) MMX 5798) | MIC (Streptococci; S. pneumoniae MMX 432, PRSP) | MIC (Streptococci; S. pneumoniae MMX 747) | MIC (Streptococci; S. pyogenes MMX 8778) | MIC (Clostridium difficile; C. difficile MMX 4994 ATCC BAA-1805, ribotype 027) | MIC (Clostridium difficile; C. difficile MMX 5668 ATCC BAA-1870, NAP1/027) | MIC (P. anaerobius) | MIC (P. acnes; P. acnes MMX 7942 ATCC 6919) | MIC (P. acnes; P. acnes MMX 7946 ATCC 11827)
0.5 µg/mL: MIC (Staphylococcus aureus; VISA, S. aureus MMX 1723, Mu50)
0.18 µg/mL: MIC (Clostridium difficile; C. difficile MMX 4381 ATCC 700057, toxinAB-negative)
0.015 µg/mL: MIC (Streptococci; S. dysgalactiae MMX 5123) | MIC (Streptococci; S. pyogenes MMX 404 ATCC 19615) | MIC (Streptococci; S. pyogenes MMX 946, ermR) | MIC (P. micros)
0.185 µg/mL: MIC (Staphylococcus aureus; MRSA, S. aureus MMX 3982, MRSA) | MIC (Staphylococcus aureus; MRSA, S. aureus MMX 5985, MRSA) | MIC (Staphylococcus aureus; MRSA, S. aureus MMX 7900, MRSA)
